Assays:
[1] = compound: CC(=O)c1c(C)c2cnc(Nc3ccc(N4CCNCC4)cn3)nc2n(C2CCCC2)c1=O
[2] = compound: CC[C@@H]1C(=O)N(C)c2cnc(Nc3ccc(C(=O)N[C@H]4CC[C@H](N5CCN(CC6CC6)CC5)CC4)cc3OC)nc2N1C(C)C [Volasertib/BI6727]
[3] = compound: T1, CN(C)C/C=C/C(=O)Nc1ccc(C(=O)N2CCC[C@@H](Nc3ncc(Cl)c(-c4c[nH]c5ccccc45)n3)C2)cc1 [THZ531]
[4] = compound: Cc1nc(Nc2ncc(C(=O)Nc3c(C)cccc3Cl)s2)cc(N2CCN(CCO)CC2)n1 [Dasatinib]
[5] = compound: CO[C@@H](C)Cn1c(=O)n(C)c2cnc3ccc(-c4cncc(C(C)(C)O)c4)cc3c21
[6] = compound: COc1cccc2c1C(=O)c1c(O)c3c(c(O)c1C2=O)C[C@@](O)(C(=O)CO)C[C@@H]3O[C@H]1C[C@H](N)[C@H](O)[C@H](C)O1 [Doxorubicin]
[7] = compound: CN(C)C/C=C/C(=O)Nc1ccc(O[C@@H]2CCC[C@@H](Nc3ncc(Cl)c(-c4c[nH]c5ccccc45)n3)C2)cc1 [BSJ-01-175]
[8] = compound: CNCc1ccc(-c2[nH]c3cc(F)cc4c3c2CCNC4=O)cc1 [Rucaparib]
[9] = compound: CC(C)n1nc(-c2ccc3oc(N)nc3c2)c2c(N)ncnc21 [INK128/MLN0128]
[10] = compound: CC(=O)Nc1cccc(-n2c(=O)n(C3CC3)c(=O)c3c(Nc4ccc(I)cc4F)n(C)c(=O)c(C)c32)c1
[11] = compound: CNC(=O)c1cccc(-c2ccc3c(N4CCOC[C@@H]4C)nc(N4CCOC[C@@H]4C)nc3n2)c1 [AZD2014]
[12] = compound: O=C(CCCCCCC(=O)Nc1ccccc1)NO [Vorinostat]
[13] = compound: Cc1cc(Nc2ncc(Cl)c(Nc3ccccc3S(=O)(=O)C(C)C)n2)c(OC(C)C)cc1C1CCNCC1 [Ceritinib/LDK378]
[14] = compound: Cc1nc(-c2cn3c(n2)-c2ccc(-c4cnn(C(C)(C)C(N)=O)c4)cc2OCC3)n(C(C)C)n1 [Taselisib/GDC0032]
[15] = compound: T2, CC(=O)c1c(C)c2cnc(Nc3ccc(N4CCN(CCOCCOCCOCCNC(=O)COc5cccc6c5C(=O)N(C5CCC(=O)NC5=O)C6=O)CC4)cn3)nc2n(C2CCCC2)c1=O [BSJ-03-123]
[16] = compound: T3, CCOc1cc2ncc(C#N)c(Nc3ccc(OCc4ccccn4)c(Cl)c3)c2cc1NC(=O)/C=C/CN(C)C [Neratinib/HKI272]
[17] = compound: T1, THZ531; assay: increase in dead-cell fraction, 72 h; higher = more death;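 note: breast cancer cell lines in 384-well plates, stained with Hoechst plus LIVE/DEAD far red dye and imaged, cells above an LDR intensity threshold counted dead, Hoechst-negative corpses included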
[18] = compound: CN(C)C/C=C/C(=O)Nc1ccc(C(=O)Nc2cccc(Nc3ncc(Cl)c(-c4c[nH]c5ccccc45)n3)c2)cc1 [THZ1]; assay: as above
[19] = compound: C=CC(=O)Nc1ccc(C(=O)Nc2[nH]nc3c2CN(C(=O)N[C@H](CN(C)C)c2ccccc2)C3(C)C)cc1 [YKL-5-124]; assay: as above
[20] = compound: CCc1cnn2c(NCc3ccc[n+]([O-])c3)cc(N3CCCC[C@H]3CCO)nc12; assay: as above
[21] = compound: T2, BSJ-03-123; assay: as above
[22] = compound: T3, Neratinib/HKI272; assay: as above
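Throughout, for GR50, 72 h: breast cancer and non-malignant breast epithelial cell lines, Deep Dye Drop or Dye Drop imaging, nine half-log doses, GR normalized to time-zero plates and DMSO-only controls.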

MCF10A
GR50, 72 h [1]: 1.95 µM
GR50, 72 h [2]: 0.0221 µM
GR50, 72 h [3]: 0.358 µM
GR50, 72 h [4]: 0.709 µM
GR50, 72 h [5]: 0.163 µM
GR50, 72 h [6]: 0.0108 µM
GR50, 72 h [7]: 1.46 µM
GR50, 72 h [8]: > 10 µM
GR50, 72 h [9]: 0.0242 µM
GR50, 72 h [10]: 0.00336 µM
GR50, 72 h [11]: 0.473 µM
GR50, 72 h [12]: 2.53 µM
GR50, 72 h [13]: 2.99 µM
GR50, 72 h [14]: 0.119 µM
GR50, 72 h [15]: 1.09 µM
GR50, 72 h [16]: 0.102 µM
increase in dead-cell fraction ([17]; 0.0001 µM): -0.0006
increase in dead-cell fraction ([17]; 0.0003162 µM): -0.0007
increase in dead-cell fraction ([17]; 0.001 µM): 0.0006
increase in dead-cell fraction ([17]; 0.003162 µM): -0.0006
increase in dead-cell fraction ([17]; 0.01 µM): -0.0015
increase in dead-cell fraction ([17]; 0.03162 µM): 0.0007
increase in dead-cell fraction ([17]; 0.1 µM): 0.0013
increase in dead-cell fraction ([17]; 0.3162 µM): 0.0057
increase in dead-cell fraction ([17]; 1 µM): 0.795
increase in dead-cell fraction ([18]; 0.0001 µM): -0.0014
increase in dead-cell fraction ([18]; 0.0003162 µM): 0.0002
increase in dead-cell fraction ([18]; 0.001 µM): 0.0012
increase in dead-cell fraction ([18]; 0.003162 µM): -0.0011
increase in dead-cell fraction ([18]; 0.01 µM): -0.0007
increase in dead-cell fraction ([18]; 0.03162 µM): 0.0074
increase in dead-cell fraction ([18]; 0.1 µM): 0.0416
increase in dead-cell fraction ([18]; 0.3162 µM): 0.0884
increase in dead-cell fraction ([18]; 1 µM): 0.642
increase in dead-cell fraction ([19]; 0.001 µM): 0.0412
increase in dead-cell fraction ([19]; 0.003162 µM): 0.118
increase in dead-cell fraction ([19]; 0.01 µM): 0.138
increase in dead-cell fraction ([19]; 0.03162 µM): 0.146
increase in dead-cell fraction ([19]; 0.1 µM): 0.116
increase in dead-cell fraction ([19]; 0.3162 µM): 0.149
increase in dead-cell fraction ([19]; 1 µM): 0.159
increase in dead-cell fraction ([19]; 3.162 µM): 0.118
increase in dead-cell fraction ([19]; 10 µM): 0.167
increase in dead-cell fraction ([20]; 0.0001 µM): 0.0013
increase in dead-cell fraction ([20]; 0.0003162 µM): 0.0005
increase in dead-cell fraction ([20]; 0.001 µM): 0.0001
increase in dead-cell fraction ([20]; 0.003162 µM): 0.0053
increase in dead-cell fraction ([20]; 0.01 µM): 0.0077
increase in dead-cell fraction ([20]; 0.03162 µM): 0.5
increase in dead-cell fraction ([20]; 0.1 µM): 0.575
increase in dead-cell fraction ([20]; 0.3162 µM): 0.559
increase in dead-cell fraction ([20]; 1 µM): 0.523
increase in dead-cell fraction ([21]; 0.001 µM): 0.0008
increase in dead-cell fraction ([21]; 0.003162 µM): -0.0013
increase in dead-cell fraction ([21]; 0.01 µM): -0.0008
increase in dead-cell fraction ([21]; 0.03162 µM): 0.0005
increase in dead-cell fraction ([21]; 0.1 µM): 0.0018
increase in dead-cell fraction ([21]; 0.3162 µM): -0.0009
increase in dead-cell fraction ([21]; 1 µM): 0.0005
increase in dead-cell fraction ([21]; 3.162 µM): 0.0017
increase in dead-cell fraction ([21]; 10 µM): 0.153
increase in dead-cell fraction ([22]; 0.0003162 µM): -0.0011
increase in dead-cell fraction ([22]; 0.001 µM): -0.0018
increase in dead-cell fraction ([22]; 0.003162 µM): -0.0008
increase in dead-cell fraction ([22]; 0.01 µM): -0.0018
increase in dead-cell fraction ([22]; 0.03162 µM): -0.0064
increase in dead-cell fraction ([22]; 0.1 µM): -0.004
increase in dead-cell fraction ([22]; 0.3162 µM): 0.003
increase in dead-cell fraction ([22]; 1 µM): 0.0444
increase in dead-cell fraction ([22]; 3.162 µM): 0.164

Source: the supplement of paper PMC9663587
